In patent US9532994B2, “Agents and methods for enhancing bone formation by oxysterols in combination with bone morphogenic proteins” (THE REGENTS OF THE UNIVERSITY OF CALIFORNIA, priority 2003, dated 2017):

Key:
[1] = tested on: M2 cells; assay: Adipogenesis of M2 cells, oil Red O staining and adipocyte count; format: cell-based, mouse; conditions: 10 μM Tro, 10 μM oxysterols, alone or in combination, 10 days (FIG. 7)
Method: (§1) Von Kossa and oil red O staining—Matrix mineralization in cell monolayers was detected by silver nitrate staining as previously described. Oil red O staining for detection of adipocytes was performed as previously described.
Test 1: M2 cells at 90% confluence were treated with vehicle (C), PPAR-γ activator, troglitazone 10 uM (Tro), alone or in combination with 10 μM oxysterols 20S-, 22R-, or 25S-hydroxycholesterol. After 8 days, adipocytes were identified by oil Red O staining and quantified by counting under a phase contrast microscope. FIG. 6A is a bar graph depicting the effect of oxysterols on reducing adipogenesis of MSC.
Test 2: (A) M2 cells at confluence were treated in RPMI containing 10% FBS with control vehicle or 10 μM troglitazone (Tro) in the absence or presence of 10 μM 20S or 22S oxysterols. After 10 days, adipocytes were visualized by oil Red O staining and quantified by light microscopy, shown in (B). Data from a representative of four experiments are shown, reported as the mean SD of quadruplicate determinations (p<0.001 for Tro vs. Tro+20S and Tro+22S). (C) M2 cells were treated at confluence with 10 μM Tro, alone or in combination with 10 μM 20S oxysterol. After 10 days, total RNA was isolated and analyzed for lipoprotein lipase (LPL), adipocyte P2 gene (aP2) or 18S rRNA expression by Northern blotting as described (Ref). Data from densitometric analysis of the Northern blot is shown in (D) as the average of duplicate samples, normalized to 18S rRNA.

[2] = tested on: M2-10B4 mouse marrow stromal cell line; assay: Alkaline phosphatase (ALP) activity assay in M2 cells; format: cell-based; conditions: for inhibition of oxysterol-induced alkaline phosphatase activity: with 22R+20S (2.5 μM each), 3 days, SC 10 μM, ACA 25 μM, MC 20 μM (FIGS. 9A, 9E)
Method: (§2) Cells: M2-10B4 mouse marrow stromal cell line obtained from American Type Culture Collection (ATCC, Rockville, Md., U.S.A.) was derived from bone marrow stromal cells of a (C57BL/6J×C3H/HeJ) F1 mouse, and support human and murine myelopoiesis in long-term cultures (as per ATCC) and have the ability to differentiate into osteoblastic and adipocytic cells. Unless specified, these cells were cultured in RPMI 1640 containing 10% heat-inactivated FBS, and supplemented with 1 mM sodium pyruvate, 100 U/ml penicillin, and 100 […] (all from Irvine Scientific).
Alkaline phosphatase activity assay: Colorimetric alkaline phosphatase (ALP) activity assay on whole cell extracts was performed as previously described. […]
Test 2: M2 cells were grown in RPMI medium containing 10% fetal bovine serum (FBS). At confluence, the cells were treated in RPMI containing 5% FBS plus ascorbate at 50 μg/ml and β-glycerophosphate at 3 mM to induce osteoblastic differentiation. Adipogenic differentiation was induced by treating the cells in growth medium plus 10 ˜M troglitazone. A vehicle (C) or oxysterol treatment was applied to cells in a variety of doses (in μM): 20S-Hydroxycholesterol, 25-Hydroxycholesterol, 22R-Hydroxycholesterol; 22S-Hydroxycholesterol; 7-ketocholesterol. Cells were always treated at 90% confluence. After 4 days, alkaline phosphatase activity was determined in whole cell lysates and normalized to protein. Alternatively, MSC cultures were prepared and treated with oxysterols as described above. Cells were treated at 90% confluence with the combination of 22R-Hydroxycholesterol and 20S-Hydroxycholesterol, each at 5 μM, for 4 to 96 hours. The oxysterols where removed and fresh media without oxysterols was added for a total duration of 96 hours. Alkaline phosphatase activity was measured in whole cell extracts and normalized to protein.
M2 cells were treated at 90% confluence with vehicle (C), or oxysterols 20S-Hydroxycholesterol or 22S-Hydroxycholesterol at (0.5 μM) or (1 μM), in the absence or presence of cytochrome P450 inhibitor (SKF525A 10 μM (+)). MSC cultures were also treated at 90% confluence with vehicle (C), or 20S-Hydroxycholesterol (2 μM), in the absence or presence of cytochrome P450 […] (Benzylimidazole 50 μM) or SKF525A (10 μM). After 4 days, alkaline phosphatase activity was measured in whole cell extracts and normalized to protein. […]

[3] = tested on: M2-10B4 mouse marrow stromal cell line; assay: Matrix mineralization in M2 cells (von Kossa staining, 45Ca incorporation assay); format: cell-based; conditions: for inhibition of oxysterol-induced mineralization: with 22R+20S (2.5 μM each), 10 days, 45Ca incorporation (FIGS. 9B, 9F)
Method: as §2, §1
^45Ca incorporation assay—Matrix mineralization in cell monolayers was quantified using the ^45Ca incorporation assay as previously described.
M2 cells at confluence were treated in osteogenic medium with control vehicle or 5 μM oxysterols, alone or in combination as indicated. After 14 days, mineralization was identified by a von Kossa staining, which appears black. FIG. 3C is a depiction of von Kossa staining of M2 cells exposed to various conditions.
M2 cells were treated with control vehicle (C) or a combination of 22R and 20S oxysterols at increasing concentrations. After 14 days, matrix mineralization in cultures was quantified using a ^45Ca incorporation assay. […] FIG. 3D is a bar graph depicting the effect of a combination of oxysterols at various doses on calcium incorporation in M2 cells.
(§3) Next, a combination of 22R and 20S oxysterols (RS, 2.5 μM each) were added in the presence or absence of SC as indicated. After 3 days, ALP activity was measured as described earlier. […] (B) M2 cells were treated as described in (A) and after 10 days matrix mineralization in cultures was quantified by a ^45Ca incorporation assay as described earlier. Results from a representative of three experiments are shown, reported as the mean±SD of quadruplicate determinations, normalized to protein concentration. (C) M2 cells were pretreated with 20 μM SC for 4 hours, followed by the addition of RS in the presence or absence of SC as described above. After 8 days, total RNA was isolated and analyzed for osteocalcin (Osc) and 18S rRNA expression by Northern blotting as previously described. Data from densitometric analysis of the Northern blot is shown in (D) as the average of duplicate samples, normalized to 18S rRNA. (E) M2 cells at confluence were pretreated for 2 hours with control vehicle (C), or PLA2 inhibitors ACA (25 μM) and MCOCF3 (MC, 20 μM), in osteogenic medium. Next, a combination of 22R and 20S oxysterols (RS, 2.5 μM) was added in the presence or absence of the inhibitors as indicated. After 3 days, ALP activity was measured as previously described. Data from a representative of three experiments are shown, reported as the mean±SD of quadruplicate determinations, normalized to protein concentration (p<0.01 for RS vs. RS+ACA and RS+MC). (F) M2 cells were treated as described in (E). After 10 days, matrix mineralization in cultures was quantified using a ^45Ca incorporation assay as previously described. Results from a representative of three experiments are shown, reported as the mean of quadruplicate determinations±SD, normalized to protein concentration (p<0.01 for RS vs. RS+ACA and RS+MC).
(A) M2 cells at confluence were pretreated for four hours with RPMI containing 1% FBS, followed by treatment with control vehicle or 5 μM 20S oxysterol for 1, 4, or 8 hours. Next total cell extracts were prepared and analyzed for levels of native or phosphorylated ERK (pERK) using specific antibodies as previously described.

[4] = tested on: M2 cells; assay: Non-toxic doses in M2 cell cultures; format: cell-based, mouse
[5] = tested on: marrow stromal cells; assay: Osteogenic activity/effects of oxysterol combinations in marrow stromal cells, readout not specified; format: cell-based, mouse; conditions: NS-398 at 20 μM, M2 cells
[6] = tested on: osteocalcin mRNA in M2 cells; assay: Northern blotting for osteocalcin mRNA in M2 cells; format: cell-based, mouse; conditions: TO treatment, after 10 days
Method: The extent of gene induction was determined by densitometry.
After 4 and 8 days, total RNA from duplicate samples was isolated and analyzed for osteocalcin (Osc) and 28S rRNA expression by Northern blotting as described. FIG. 3E is a radiogram of Northern blotting for osteocalcin mRNA in M2 cells exposed to a control or combination of oxysterols for 4 or 8 days. FIG. 3F is a bar graph depicting the relative demsometric units of osteocalcin mRNA in M2 cells exposed to a control or combination of oxysterols for 4 or 8 days. Data from densitometric analysis of the Northern blot is shown in (F) as the average of duplicate samples, normalized to 28S rRNA.
as §3, with “(E).” for “(E). After 10 days, matrix mineralization in cultures was quantified using a ^45Ca incorporation assay as previously described. Results from a representative of three experiments are shown, reported as the mean of quadruplicate determinations±SD, normalized to protein concentration (p<0.01 for RS vs. RS+ACA and RS+MC).”

CC(C)CCC[C@@H](C)[C@H]1CC[C@H]2[C@@H]3C(=O)C=C4C[C@@H](O)CC[C@]4(C)[C@H]3CC[C@]12C [7K, 7-ketocholesterol, reference compound]
adipogenesis induced by troglitazone [1]: unable to inhibit
induction of alkaline phosphatase activity ([2]; 10 μM oxysterols, osteogenic medium, 3 days (FIG. 3A)): did not induce

CCCCC/C=C\C/C=C\C/C=C\C/C=C\CCCC(=O)C(F)(F)F [AACOCF3]
inhibition of oxysterol-induced alkaline phosphatase activity [2]: inhibited
inhibition of oxysterol-induced mineralization [3]: inhibited

CCCCCc1ccc(/C=C/C(=O)Nc2ccccc2C(=O)O)cc1 [ACA]
inhibition of oxysterol-induced alkaline phosphatase activity [2]: inhibited
inhibition of oxysterol-induced mineralization [3]: inhibited

CS(=O)(=O)Nc1ccc([N+](=O)[O-])cc1OC1CCCCC1 [NS-398]
highest non-toxic dose [4]: 20 µM
inhibition of osteogenic effects of oxysterol combination [5]: negligible inhibitory effects

COc1cccc(-c2cc(=O)c3ccccc3o2)c1N [PD98059]
inhibition of oxysterol-induced mineralization by ERK pathway inhibitor ([3]; 20 μM PD with 22R+20S (5 μM each), 10 days (FIG. 10B)): inhibited

CCCCC[C@H](O)/C=C/[C@H]1[C@H](O)CC(=O)[C@@H]1C/C=C\CCCC(=O)O [PGE2, prostaglandin E2]
reversal of effect of COX-1 inhibitor on oxysterol-induced alkaline phosphatase activity ([2]; 1 μM PGE2, data not shown): reversed

CCCC(C(=O)OCCN(CC)CC)(c1ccccc1)c1ccccc1.Cl [SKF525A]
effect on osteogenic effects of the oxysterols (alkaline phosphatase activity) ([2]; SKF525A 10 μM with 20S or 22S at 0.5 or 1 μM, 4 days (FIG. 5A)): potentiated

O=S(=O)(c1ccccc1)N(CC(F)(F)F)c1ccc(C(O)(C(F)(F)F)C(F)(F)F)cc1 [TO, TO-901317]
osteoblastic differentiation (alkaline phosphatase activity), LXR ligands ([2]; 1-4 μM, 4 days (FIG. 8)): inhibited
inhibition of alkaline phosphatase activity ([2]; TO at 1-10 μM): dose-dependent inhibition
alkaline phosphatase activity ([2]; ligands used at 10 μM, ±SD, control vehicle C: 18±2, p<0.01 for C vs. all ligands): 3±0.5 activity units/mg protein
induction of osteocalcin gene expression [6]: did not induce
induction of mineralization ([3]; TO treatment, after 10 days): did not induce

CCCCC/C=C\C/C=C\C/C=C\C/C=C\CCCC(=O)O [arachidonic acid]
reversal of effect of PLA2 inhibitors on oxysterol-induced alkaline phosphatase activity ([2]; 25 μM arachidonic acid, data not shown): reversed
